No end group written: not given here.
Tested on: arachidonic acid induced inflammation in mouse ear
Assay: Mouse ear model, arachidonic acid (AA) induced inflammation, ear thickness
Format: in vivo
Procedure: The anti-inflammatory properties of CT-112 (SEQ. ID NO: 1) were assessed using a standardized assay for anti-inflammatory activity, i.e., the mouse ear model in which arachidonic acid (AA) is used to induce an inflammatory reaction (Young et al., 1984, J. Invest. Dermatol. 82:367-371; Doherty, et al., 1988, J. Invest. Dermatol. 91:298-302).
Female mice (C57BL/6UAF, Charles River Breeding Laboratories, approximately 15-18 g) were obtained and acclimated for 2 weeks prior to use. The animals were approximately 14 weeks old at the start of the study.
To prepare minipumps for implantation, CT-112 (SEQ. ID NO: 1) was dissolved in PBS. The material was loaded into Alzet minipumps set to deliver 0.05 (5 animals), 0.1 (10 animals), 1 (10 animals), or 2.5 (5 animals) mg of CT-112 (SEQ. ID NO: 1) per animal per day. Minipumps for implantation into control animals contained only PBS. As a positive control, one set of 10 mice received 100 mg/kg of phenidone, a potent 5-lipoxygenase inhibitor which acts as an anti-inflammatory agent, 15 min prior to challenge with AA.
For subcutaneous implantation of minipumps, animals were anesthetized with Ketamine/Xylazine. The Ketamine (Aveco Lot #440140) was injected at 80 mg/kg and the Xylazine (Rugby Laboratories Lot #26040-B) at 16 mg/kg and the Alzet pumps were implanted subcutaneously in the dorsothoracic area. Animals were allowed to recover and then housed and given food and water ad libitum for 5 days.
On the sixth day following pump implantation, 0.01 ml of AA was applied to the inner and outer surfaces of the right ear by means of an automatic microliter pipette. One hr following AA application, the mice were sacrificed and ear thickness was measured with a Mitutoyo No. 7300 Gauge Caliper. The left ears were also measured as an internal control.
Mice were implanted with Alzet mini-pumps set to deliver 60 mg/kg/day for either 7, 3, or 1 days. A separate group of 5 mice received 3 intraperitoneal injections of CT-112 (60 mg/kg/injection) at 24, 1 and 0.25 hr prior to AA challenge. CT-112 (SEQ. ID NO: 1) was prepared for injection by dissolving the compound in Dulbecco's PBS to give a final CT-112 (SEQ. ID NO: 1) concentration of 5 mg/ml. The control mice were implanted with Alzet minipumps that delivered PBS for 7 days. The AA challenge was the same as described supra in Example 7.
Administration of CT-112 (SEQ. ID NO: 1) (60 mg/kg/injection) via multiple intraperitoneal injections was performed at the following times prior to AA challenge:
In addition, the effect of a single administration of CT-112 (SEQ. ID NO: 1) (60 mg/kg) by intraperitoneal injection was performed at either 1 or 3 hr prior to AA challenge. Control mice had Alzet minipumps implanted to deliver PBS for 7 days prior to AA challenge. The AA challenge was the same as described supra in Example 7. The results of the multiple dosing regimens and the 1 hr and 3 hr single dosing regimens were compared to the anti-inflammatory activity of CT-112 (SEQ. ID NO: 1) delivered via Alzet minipump set to deliver 60 mg/kg/day for 7 days using 5 animals per treatment.
In a separate experiment, the effect of multiple intraperitoneal injections of CT-112 (SEQ. ID NO: 1) at either 6, 3, 1 and 0.25 hr, or 16, 3, 1 and 0.25 hr prior to AA challenge was assessed. The results of both multi-dosing regimens were compared to both phenidone (100 mg/kg administered 15 min prior to AA challenge) and CT-112 (SEQ. ID NO: 1) administered via Alzet mini-pump (60 mg/kg/day for 7 days). For this latter study, the number of animals receiving the single injection of CT-112 (SEQ. ID NO: 1) was increased from 5 to 10.
Administration to mice of CT-112 (SEQ. ID NO: 1) (60 mg/kg/injection) via multiple subcutaneous injections prior to AA challenge was performed at:
In addition, other mice received only a single subcutaneous injection of CT-112 (SEQ. ID NO: 1) (60 mg/kg) at either 3 or 1 hr prior to AA challenge. […]

Compound | % Reduction of Ear Swelling (Table I, phenidone 100 mg/kg, 15 min prior to AA) [%] | % Inhibition (Table XII, 60 mg/kg/day via Alzet pump for 24 hr) [%] | Thickness Difference (Left-Right) (Table XIII, 60 mg/kg/day via Alzet pump for 24 hr) [in]
O=C1CCN(c2ccccc2)N1 [Phenidone, reference compound] | 84.1 |  | 
TTSHVKPQ [CT-135, ID; NO; 20] |  | 73 | 0.00178 ± 0.00073

Reference: patent US5776892A, “Anti-inflammatory peptides” (Curative Health Services, Inc., priority 1994, dated 1998)
